This test has as its system caspase-3. As to the kind of experiment: Caspase-3 activity in HUVECs (Example 7-2). The test is classed as cell-based, human. As to conditions: caspase-3-specific inhibitor added to samples. How it is done:
With respect to the induction of endothelial cell apoptosis (active cell death) by the fas-1 domain, which had been confirmed in Example 7-1 above, the present inventors measured the activity of caspase-3, which is activated when apoptosis occurs, in the cells treated with the fas-1 domain.
HUVECs were spread onto a 100-mm plate (10 ml culture solution) with M199 medium containing 10% FBS, followed by incubation in a 37° C. incubator for 12 hours. After the incubation, the medium was removed from the plate, the cells were added with fresh medium containing 0.1% FBS and further incubated for 24 hours. The cell-containing medium was treated with 5 μM or 20 μM of the fas-1 domain (βig-h3 D-IV) prepared in Example 1. A control was treated with PBS buffer. At 12 hours and 24 hours after the treatment, the cells were harvested. The caspase-3 activity of the cells was measured with an EnzCheck Caspase-3 Assay Kit(#2) (Molecular Probe Co., Eugene, Oreg., USA). Moreover, to verify that measured values are attributed to caspase-3 activity, each of the samples was treated with DEVD-CHO (Molecular Probe Co., Eugene, Oreg., USA) as a caspase-3-specific inhibitor. The control was treated with DMSO.

On to DEVD-CHO [reference compound], for which the “inhibition of caspase-3 activities of test groups and control group” value is listed as “inhibited”.

These data come from patent US20070167369A1, “Novel use of isolated polypeptide comprising four FAS-1 domains, EM1 domain and RGD motif” (KYUNGPOOK NATIONAL UNIVERSITY INDUSTRY-ACADEMIC COOPERATION …, priority 2004, published 2007).
